Values after ≈ are worked out from the molar mass of the structure shown.
Tests used:
[1] = system: Klebsiella pneumonia ATCC 43816; test: Minimal Inhibitory Concentration (MIC) broth dilution assay; type: cell-based; conditions: Klebsiella pneumoniae, ATCC43816, 20 h, read-out: MIC Klebsiella pneumoniae ATCC43816
Protocol: (§1) The antibacterial activity of the compounds of the present invention was evaluated against the commonly used quality control strain Escherichia coli ATCC 25922 and the rifampin-resistant mutant strain Klebsiella pneumonia ATCC 43816. Both were originally derived from human clinical samples and are available from ATCC (American Type Culture Collection). The in vitro potency of compounds to inhibit Escherichia coli (ATCC 25922) and Klebsiella pneumonia (ATCC 43816) growth was assessed by the MIC (Minimal Inhibitory Concentration) broth dilution method. Specifically compound dilutions were prepared from 10 mM DMSO stock solutions as follows: i) serial 2-fold dilution in 20 μL DMSO were prepared in a master plate (Greiner, Cat No: 651201), ii) 180 μL sterile distilled water was added to each aliquot and iii) 10 μL diluted compounds were transferred into a new assay plate (Costar, 3599).
(§2) Vials of each test microorganisms were maintained frozen in the vapor phase of a liquid nitrogen freezer. Single-use frozen vials of the two strains Escherichia coli ATCC 25922 (KWIKSTIK, 0335K) and Klebsiella pneumonia ATCC 43816, with predetermined CFU/mL, were taken out from the freezer, thawed at room temperature, and diluted in Cation-Adjusted Mueller Hinton Broth (CAMHB) to achieve a final inoculum of 5×10^5 CFU/mL. 90 μL bacteria containing broth was dispensed to the assay plate containing the pre-dispensed compound dilutions and mixed by pipetting 5 times.
(§3) Then the assay plates were incubated for 20 hours at 35° C. in ambient air. Following incubation, the MIC ([…]), the lowest concentration of drug that inhibits visible growth of the microorganism was read with the help of a magnification mirror and recorded.

[2] = system: Escherichia coli ATCC 25922; test: as above; type: cell-based; conditions: ATCC25922, 20 h, read-out: MIC Escherichia coli ATCC 25922
Protocol: as §1, §2, §3

Compound	MIC [1] [mg/L]	MIC [2] [mg/L]
O=C(c1cnn(C2CNC2)c1)N1CCc2cc(S(=O)(=O)N3CCN(c4cc(C(F)(F)F)cc(Cl)n4)CC3)ccc21 [Example 036, [1-(Azetidin-3-yl)pyrazol-4-yl]-[5-[4-[6-chloro-4-(trifluoromethyl)-2-pyridyl]piperazin-1-yl]sulfonylindolin-1-yl]methanone]	7.4 (≈ 12.4 µM)	3.7 (≈ 6.21 µM)
NCCCn1cc(C(=O)N2CCc3cc(S(=O)(=O)N4CCN(c5cc(C(F)(F)F)cc(Cl)n5)CC4)ccc32)cn1 [Example 037, [1-(3-Aminopropyl)pyrazol-4-yl]-[5-[4-[6-chloro-4-(trifluoromethyl)-2-pyridyl]piperazin-1-yl]sulfonylindolin-1-yl]methanone]	7.5 (≈ 12.5 µM)	3.7 (≈ 6.19 µM)
O=C(c1cnn2c1CNCC2)N1CCc2cc(S(=O)(=O)N3CCN(c4cc(C(F)(F)F)cc(Cl)n4)CC3)ccc21 [Example 038, [5-[4-[6-Chloro-4-(trifluoromethyl)-2-pyridyl]piperazin-1-yl]sulfonylindolin-1-yl]-(4,5,6,7-tetrahydropyrazolo[1,5-a]pyrazin-3-yl)methanone]	7.4 (≈ 12.4 µM)	3.7 (≈ 6.21 µM)
O=C(CN1CCNCC1)Nc1ccc(S(=O)(=O)N2CCN(c3cc(C(F)(F)F)cc(Cl)n3)CC2)cc1 [Example 040, N-[4-[4-[6-chloro-4-(trifluoromethyl)-2-pyridyl]piperazin-1-yl]sulfonylphenyl]-2-piperazin-1-yl-acetamide]	8.3 (≈ 15.2 µM)	2.1 (≈ 3.84 µM)
O=C(O)c1ccccc1C(=O)N1CCc2cc(S(=O)(=O)N3CCN(c4cc(C(F)(F)F)cc(Cl)n4)CC3)ccc21 [Example 042, 2-[5-[4-[6-Chloro-4-(trifluoromethyl)-2-pyridyl]piperazin-1-yl]sulfonylindoline-1-carbonyl]benzoic acid]	2 (≈ 3.36 µM)	0.99 (≈ 1.66 µM)
Cc1cc(C(F)(F)F)nc(N2CCN(S(=O)(=O)c3ccc(NC(=O)c4cnc5c(c4)CNC5)cc3)CC2)n1 [Example 044, N-[4-[4-[4-methyl-6-(trifluoromethyl)pyrimidin-2-yl]piperazin-1-yl]sulfonylphenyl]-6,7-dihydro-5H-pyrrolo[3,4-b]pyridine-3-carboxamide]	1.8 (≈ 3.29 µM)	0.91 (≈ 1.66 µM)
Cc1cc(C(F)(F)F)cc(N2CCN(S(=O)(=O)c3ccc(NC(=O)c4cnc5c(c4)CNC5)cc3)CC2)n1 [Example 045, N-[4-[4-[6-methyl-4-(trifluoromethyl)-2-pyridyl]piperazin-1-yl]sulfonylphenyl]-6,7-dihydro-5H-pyrrolo[3,4-b]pyridine-3-carboxamide]	3.6 (≈ 6.59 µM)	0.91 (≈ 1.66 µM)
O=C(Nc1ccc(S(=O)(=O)N2CCN(c3cc(C(F)(F)F)cc(Cl)n3)CC2)cc1)c1ccc2c(c1)CNC2 [Example 046, N-[4-[4-[6-chloro-4-(trifluoromethyl)-2-pyridyl]piperazin-1-yl]sulfonylphenyl]isoindoline-5-carboxamide]	0.47 (≈ 0.83 µM)	0.47 (≈ 0.83 µM)
O=C(Nc1ccc(S(=O)(=O)N2CCN(c3cc(C(F)(F)F)cc(Cl)n3)CC2)cc1)c1cccc(N2CC3CC2CN3)c1 (stereo not drawn) [Example 047, N-[4-[4-[6-chloro-4-(trifluoromethyl)-2-pyridyl]piperazin-1-yl]sulfonylphenyl]-3-(2,5-diazabicyclo[2.2.1]heptan-2-yl)benzamide]	2.3 (≈ 3.7 µM)	1.1 (≈ 1.77 µM)
NCCOc1cccc(C(=O)Nc2ccc(S(=O)(=O)N3CCN(c4cc(C(F)(F)F)cc(Cl)n4)CC3)cc2)c1 [Example 048, 3-(2-Aminoethoxy)-N-[4-[4-[6-chloro-4-(trifluoromethyl)-2-pyridyl]piperazin-1-yl]sulfonylphenyl]benzamide]	0.97 (≈ 1.66 µM)	0.48 (≈ 0.822 µM)
O=C(Nc1ccc(S(=O)(=O)N2CCN(c3cc(C(F)(F)F)cc(Cl)n3)CC2)cc1)c1cccc(OCC2CNC2)c1 [Example 050, 3-(Azetidin-3-ylmethoxy)-N-[4-[4-[6-chloro-4-(trifluoromethyl)-2-pyridyl]piperazin-1-yl]sulfonylphenyl]benzamide]	1 (≈ 1.64 µM)	1 (≈ 1.64 µM)
N[C@@H]1CCN(c2cccc(C(=O)Nc3ccc(S(=O)(=O)N4CCN(c5cc(C(F)(F)F)cc(Cl)n5)CC4)cc3)c2)C1 [Example 051, N-[4-[4-[6-chloro-4-(trifluoromethyl)-2-pyridyl]piperazin-1-yl]sulfonylphenyl]-3-[(3R)-3-aminopyrrolidin-1-yl]benzamide]	1.1 (≈ 1.81 µM)	0.56 (≈ 0.919 µM)
NCCc1cccc(C(=O)Nc2ccc(S(=O)(=O)N3CCN(c4cc(C(F)(F)F)cc(Cl)n4)CC3)cc2)c1 [Example 053, 3-(2-Aminoethyl)-N-[4-[4-[6-chloro-4-(trifluoromethyl)-2-pyridyl]piperazin-1-yl]sulfonylphenyl]benzamide]	0.89 (≈ 1.57 µM)	0.44 (≈ 0.775 µM)
O=C(Nc1ccc(S(=O)(=O)N2CCN(c3cc(C(F)(F)F)cc(Cl)n3)CC2)cc1)c1cccc(N2CCNCC2)c1 [Example 054, N-[4-[4-[6-chloro-4-(trifluoromethyl)-2-pyridyl]piperazin-1-yl]sulfonylphenyl]-3-piperazin-1-yl-benzamide]	0.95 (≈ 1.56 µM)	0.48 (≈ 0.788 µM)
NC1Cc2ccc(C(=O)Nc3ccc(S(=O)(=O)N4CCN(c5cc(C(F)(F)F)cc(Cl)n5)CC4)cc3)cc2C1 (stereo not drawn) [Example 055, 2-Amino-N-[4-[4-[6-chloro-4-(trifluoromethyl)-2-pyridyl]piperazin-1-yl]sulfonylphenyl]indane-5-carboxamide]	0.91 (≈ 1.57 µM)	0.45 (≈ 0.776 µM)
NCc1ccc(O)c(C(=O)Nc2ccc(S(=O)(=O)N3CCN(c4cc(C(F)(F)F)cc(Cl)n4)CC3)cc2)c1 [Example 056, 5-(Aminomethyl)-N-[4-[4-[6-chloro-4-(trifluoromethyl)-2-pyridyl]piperazin-1-yl]sulfonylphenyl]-2-hydroxy-benzamide]	3.8 (≈ 6.67 µM)	3.8 (≈ 6.67 µM)
NCCC(N)C(=O)Nc1cccc(C(=O)Nc2ccc(S(=O)(=O)N3CCN(c4cc(C(F)(F)F)cc(Cl)n4)CC3)cc2)c1 (stereo not drawn) [Example 057, N-[4-[4-[6-chloro-4-(trifluoromethyl)-2-pyridyl]piperazin-1-yl]sulfonylphenyl]-3-(2,4-diaminobutanoylamino)benzamide]	2 (≈ 3.12 µM)	1 (≈ 1.56 µM)
NCCCNCc1ccnc(C(=O)Nc2ccc(S(=O)(=O)N3CCN(c4cc(C(F)(F)F)cc(Cl)n4)CC3)cc2)c1 [Example 058, 4-[(3-Aminopropylamino)methyl]-N-[4-[4-[6-chloro-4-(trifluoromethyl)-2-pyridyl]piperazin-1-yl]sulfonylphenyl]pyridine-2-carboxamide]	3.8 (≈ 6.21 µM)	3.8 (≈ 6.21 µM)
NCCCNCc1cccc(C(=O)Nc2ccc(S(=O)(=O)N3CCN(c4cc(C(F)(F)F)cc(Cl)n4)CC3)cc2)n1 [Example 059, 6-[(3-Aminopropylamino)methyl]-N-[4-[4-[6-chloro-4-(trifluoromethyl)-2-pyridyl]piperazin-1-yl]sulfonylphenyl]pyridine-2-carboxamide]	3.8 (≈ 6.21 µM)	1.9 (≈ 3.1 µM)
NCCCNCc1cncc(C(=O)Nc2ccc(S(=O)(=O)N3CCN(c4cc(C(F)(F)F)cc(Cl)n4)CC3)cc2)c1 [Example 060, 5-[(3-Aminopropylamino)methyl]-N-[4-[4-[6-chloro-4-(trifluoromethyl)-2-pyridyl]piperazin-1-yl]sulfonylphenyl]pyridine-3-carboxamide]	1.9 (≈ 3.1 µM)	0.48 (≈ 0.784 µM)
NCCCNC1Cc2ccc(C(=O)Nc3ccc(S(=O)(=O)N4CCN(c5cc(C(F)(F)F)cc(Cl)n5)CC4)cc3)cc2C1 (stereo not drawn) [Example 061, 2-(3-Aminopropylamino)-N-[4-[4-[6-chloro-4-(trifluoromethyl)-2-pyridyl]piperazin-1-yl]sulfonylphenyl]indane-5-carboxamide]	1.1 (≈ 1.73 µM)	0.53 (≈ 0.832 µM)
NCCCNC1CCc2ccc(C(=O)Nc3ccc(S(=O)(=O)N4CCN(c5cc(C(F)(F)F)cc(Cl)n5)CC4)cc3)cc21 (stereo not drawn) [Example 062, 3-(3-Aminopropylamino)-N-[4-[4-[6-chloro-4-(trifluoromethyl)-2-pyridyl]piperazin-1-yl]sulfonylphenyl]indane-5-carboxamide]	4.2 (≈ 6.59 µM)	2.1 (≈ 3.3 µM)
COc1ccc(CN2CCC3CN(C)CC32)cc1C(=O)Nc1ccc(S(=O)(=O)N2CCN(c3cc(C(F)(F)F)cc(Cl)n3)CC2)cc1 (stereo not drawn) [Example 063, N-[4-[4-[6-chloro-4-(trifluoromethyl)-2-pyridyl]piperazin-1-yl]sulfonylphenyl]-2-methoxy-5-[(5-methyl-2,3,3a,4,6,6a-hexahydropyrrolo[2,3-c]pyrrol-1-yl)methyl]benzamide]	4.3 (≈ 6.2 µM)	4.3 (≈ 6.2 µM)
NCCCNC1CCc2cc(C(=O)Nc3ccc(S(=O)(=O)N4CCN(c5cc(C(F)(F)F)cc(Cl)n5)CC4)cc3)ccc21 (stereo not drawn) [Example 064, 1-(3-Aminopropylamino)-N-[4-[4-[6-chloro-4-(trifluoromethyl)-2-pyridyl]piperazin-1-yl]sulfonylphenyl]indane-5-carboxamide]	4.2 (≈ 6.59 µM)	2.1 (≈ 3.3 µM)
